Laboratory results: ChEMBL document CHEMBL3885861, “Open TG-GATES”

Organism: Rattus norvegicus
Experiment: Open TG-GATES - Regimen: Single
Assay type: toxicity, organism-based, Sprague-Dawley
Design: regimen Single, gender Male, age 6 weeks
Settings: in vivo, po, 300 mg/kg, route gavage, dose level Middle; for APTT / Bas / Eos / Fbg / Hb / Ht / Lym / MCH / MCHC / MCV / Mono / Neu / PT / Plat / RBC / Ret / WBC: tissue Blood; for KIDNEY_L / KIDNEY_R / KIDNEY_TOTAL: tissue Kidney; for LIVER: tissue Liver; for A/G / ALP / ALT / AST / BUN / CRE / Ca / Cl / DBIL / GLC / IP / K / LDH / Na / PL / RALB / TBIL / TC / TG / TP / gamma-GTP: tissue Plasma

With `CC(=O)Nc1ccc2c(c1)Cc1ccccc1-2` [2-ACETYLAMINOFLUORENE] the TERMINAL_BW (3 h) was 222.8 g, the APTT (3 h) was 19.8 s and the Bas (3 h) was 0.4%. The Eos (3 h) was 1.2%, the Fbg (3 h) was 222.4 mg/dL and the Hb (3 h) was 13.9 g/dL. The Ht (3 h) was 39.7%, the Lym (3 h) was 69.8% and the MCH (3 h) was 22.1 pg. It also gave an MCHC (3 h) of 34.9%, an MCV (3 h) of 63.3 fL and a Mono (3 h) of 2.8%. For the same compound, the Neu (3 h) was 25.4%, the PT (3 h) was 12 s and the Plat (3 h) was 131.6 x10_4/uL. The RBC (3 h) was 626.2 x10_4/ul, the Ret (3 h) was 7.1% and the WBC (3 h) was 74.2 x10_2/uL. For the same compound, the KIDNEY_L (3 h) was 1 g, the KIDNEY_R (3 h) was 0.9 g and the KIDNEY_TOTAL (3 h) was 1.9 g. The LIVER (3 h) was 10.3 g, the A/G (3 h) was 1.7 and the ALP (3 h) was 922.4 IU/L. It also gave an ALT (3 h) of 39 IU/L, an AST (3 h) of 78 IU/L and a BUN (3 h) of 12.8 mg/dL. For the same compound, the CRE (3 h) was 0.4 mg/dL, the Ca (3 h) was 10.8 mg/dL and the Cl (3 h) was 103.8 meq/L. It also gave a DBIL (3 h) of 0.07 mg/dL, a GLC (3 h) of 201.6 mg/dL and an IP (3 h) of 10.2 mg/dL. It also gave a K (3 h) of 3.9 meq/L, an LDH (3 h) of 195.8 IU/L and a Na (3 h) of 141.6 meq/L. For the same compound, the PL (3 h) was 133.2 mg/dL, the RALB (3 h) was 3.6 g/dL and the TBIL (3 h) was 0.1 mg/dL. For the same compound, the TC (3 h) was 74.6 mg/dL, the TG (3 h) was 62.6 mg/dL and the TP (3 h) was 5.7 g/dL. The gamma-GTP (3 h) was 1.4 IU/L, the TERMINAL_BW (6 h) was 219.1 g and the APTT (6 h) was 20 s. The Bas (6 h) was 0.6%, the Eos (6 h) was 0.8% and the Fbg (6 h) was 224.8 mg/dL. For the same compound, the Hb (6 h) was 14.4 g/dL, the Ht (6 h) was 41.9% and the Lym (6 h) was 77.2%. For the same compound, the MCH (6 h) was 21.9 pg, the MCHC (6 h) was 34.4% and the MCV (6 h) was 63.5 fL. It also gave a Mono (6 h) of 2.2%, a Neu (6 h) of 18.8% and a PT (6 h) of 12.8 s. It also gave a Plat (6 h) of 128 x10_4/uL, an RBC (6 h) of 661.8 x10_4/ul and a Ret (6 h) of 7.2%. It also gave a WBC (6 h) of 67.5 x10_2/uL, a KIDNEY_L (6 h) of 1 g and a KIDNEY_R (6 h) of 1 g. For the same compound, the KIDNEY_TOTAL (6 h) was 2 g, the LIVER (6 h) was 10 g and the A/G (6 h) was 1.6. For the same compound, the ALP (6 h) was 837.8 IU/L, the ALT (6 h) was 31.6 IU/L and the AST (6 h) was 67.6 IU/L. The BUN (6 h) was 12.2 mg/dL, the CRE (6 h) was 0.5 mg/dL and the Ca (6 h) was 10.8 mg/dL. The Cl (6 h) was 102.6 meq/L, the DBIL (6 h) was 0.068 mg/dL and the GLC (6 h) was 218.2 mg/dL. The IP (6 h) was 9.1 mg/dL, the K (6 h) was 3.8 meq/L and the LDH (6 h) was 191.4 IU/L. The Na (6 h) was 141 meq/L, the PL (6 h) was 144.4 mg/dL and the RALB (6 h) was 3.5 g/dL. For the same compound, the TBIL (6 h) was 0.1 mg/dL, the TC (6 h) was 85.2 mg/dL and the TG (6 h) was 32.6 mg/dL. The TP (6 h) was 5.6 g/dL, the gamma-GTP (6 h) was 1.2 IU/L and the TERMINAL_BW (9 h) was 215.7 g. The APTT (9 h) was 18.1 s, the Bas (9 h) was 0.2% and the Eos (9 h) was 0.6%. The Fbg (9 h) was 233.8 mg/dL, the Hb (9 h) was 13.9 g/dL and the Ht (9 h) was 40.7%. For the same compound, the Lym (9 h) was 74%, the MCH (9 h) was 21.4 pg and the MCHC (9 h) was 34.2%. The MCV (9 h) was 62.5 fL, the Mono (9 h) was 2.8% and the Neu (9 h) was 21.8%. For the same compound, the PT (9 h) was 13 s, the Plat (9 h) was 136.5 x10_4/uL and the RBC (9 h) was 652 x10_4/ul. It also gave a Ret (9 h) of 7.4%, a WBC (9 h) of 80.9 x10_2/uL and a KIDNEY_L (9 h) of 1 g. The KIDNEY_R (9 h) was 1 g, the KIDNEY_TOTAL (9 h) was 1.9 g and the LIVER (9 h) was 9.7 g. The A/G (9 h) was 1.6, the ALP (9 h) was 756.6 IU/L and the ALT (9 h) was 31.4 IU/L. For the same compound, the AST (9 h) was 68 IU/L, the BUN (9 h) was 10.4 mg/dL and the CRE (9 h) was 0.4 mg/dL. The Ca (9 h) was 10.5 mg/dL, the Cl (9 h) was 103.4 meq/L and the DBIL (9 h) was 0.06 mg/dL. The GLC (9 h) was 206.4 mg/dL, the IP (9 h) was 8.9 mg/dL and the K (9 h) was 4 meq/L. The LDH (9 h) was 184.6 IU/L, the Na (9 h) was 140.2 meq/L and the PL (9 h) was 125 mg/dL. The RALB (9 h) was 3.5 g/dL, the TBIL (9 h) was 0.1 mg/dL and the TC (9 h) was 72.2 mg/dL. The TG (9 h) was 32.2 mg/dL, the TP (9 h) was 5.7 g/dL and the gamma-GTP (9 h) was 1.2 IU/L. For the same compound, the TERMINAL_BW (24 h) was 220.9 g, the APTT (24 h) was 19.1 s and the Bas (24 h) was 0.6%. It also gave an Eos (24 h) of 1%, a Fbg (24 h) of 210.8 mg/dL and a Hb (24 h) of 14.5 g/dL. The Ht (24 h) was 41.9%, the Lym (24 h) was 75.2% and the MCH (24 h) was 22.2 pg. It also gave an MCHC (24 h) of 34.8%, an MCV (24 h) of 63.7 fL and a Mono (24 h) of 3.2%. For the same compound, the Neu (24 h) was 19.8%, the PT (24 h) was 14.4 s and the Plat (24 h) was 131.6 x10_4/uL. The RBC (24 h) was 657.8 x10_4/ul, the Ret (24 h) was 5.9% and the WBC (24 h) was 77.9 x10_2/uL. For the same compound, the KIDNEY_L (24 h) was 1 g, the KIDNEY_R (24 h) was 1 g and the KIDNEY_TOTAL (24 h) was 2 g. The LIVER (24 h) was 11 g, the A/G (24 h) was 1.7 and the ALP (24 h) was 865 IU/L. It also gave an ALT (24 h) of 35.4 IU/L, an AST (24 h) of 74 IU/L and a BUN (24 h) of 15.6 mg/dL. The CRE (24 h) was 0.4 mg/dL, the Ca (24 h) was 10.6 mg/dL and the Cl (24 h) was 105.2 meq/L. For the same compound, the DBIL (24 h) was 0.098 mg/dL, the GLC (24 h) was 196.6 mg/dL and the IP (24 h) was 9.1 mg/dL. It also gave a K (24 h) of 4.3 meq/L, an LDH (24 h) of 212.8 IU/L and a Na (24 h) of 140.6 meq/L. For the same compound, the PL (24 h) was 117 mg/dL, the RALB (24 h) was 3.3 g/dL and the TBIL (24 h) was 0.2 mg/dL. It also gave a TC (24 h) of 52 mg/dL, a TG (24 h) of 75.8 mg/dL and a TP (24 h) of 5.2 g/dL. It also gave a gamma-GTP (24 h) of 1.2 IU/L.
